Assay results published in patent publication US10905118B2, “Triscationic amphiphile compounds, compositions, and methods for making same” (James Madison Innovations, Inc., priority 2014, dated 2021).

Tests used:
Staphylococcus aureus = experiment: Minimum inhibitory concentration, S. aureus; assay type: cell-based, Staphylococcus aureus subsp. aureus ATCC 29213; settings: Mueller-Hinton Broth, 37° C., 72 h
Description: (§1) The MIC values of all compounds from both double-tailed series were determined for four Gram-positive (Staphylococcus aureus, Enterococcus faecalis, Streptococcus agalactiae, and Bacillus cereus) and two Gram-negative (Escherichia coli and Pseudomonas aeruginosa) strains, which are shown in Table 3.
(§2) The Gram-positive bacterial strains used tested were Staphylococcus aureus subsp. aureus ATCC® 29213™, Enterococcus faecalis ATCC® 29212™, Bacillus cereus, and Streptococcus agalactiae J48.^58 The Gram-negative bacterial strains used were Escherichia coli ATCC® 25922™ and Pseudomonas aeruginosa ATCC® 27853™. All strains were grown in 1× Mueller-Hinton Broth at 37° C. for 12-24 h. For the MIC and combination studies, bacterial suspensions were prepared by diluting overnight cultures to 5×10^6 CFU/mL in 2× Mueller-Hinton Broth, so that when amphiphile solutions are added the final broth strength is 1×.
(§3) The methods used to determine the MIC and MBC were performed as previously described and followed the standards set forth by the Clinical and Laboratory Standards Institute (See Ladow, J. E.; Warnock, D. C.; Hamill, K. M.; Simmons, K. L.; Davis, R. W.; Schwantes, C. R.; Flaherty, D. C.; Willcox, J. A. L.; Wilson-Henjum, K.; Caran, K. L.; Minbiole, K. P. C.; Seifert, K. Bicephalic amphiphile architecture affects antibacterial activity. Eur. J. Med. Chem. 2011, 46, 4219-4226 and P. A. Wayne Methods for dilution antimicrobial tests for bacteria that grow aerobically. 2009.). Briefly, compounds were serially diluted and 100 μL of each dilution were added to the wells of a 96-well flat-bottomed microtiter plate in triplicate. After adding 100 μL of the bacterial cell suspension, the plates were incubated at 37° C. for 72 h. […] The MIC was considered to be bactericidal if the MBC was the same concentration or one concentration higher in the dilution series as the MIC, per Motyl, M.; Dorso, K.; Barrett, J.; Giacobbe, R. Basic microbiological techniques used in antibacterial drug discovery. Curr. Protoc. Pharmacol. 2006, Chapter 13.

Bacillus cereus = experiment: Minimum inhibitory concentration, B. cereus; assay type: cell-based; settings: Mueller-Hinton Broth, 37° C., 72 h
Description: as §1, §2, §3

Enterococcus faecalis = experiment: Minimum inhibitory concentration, E. faecalis; assay type: cell-based, Enterococcus faecalis ATCC 29212; settings: Mueller-Hinton Broth, 37° C., 72 h
Description: as §1, §2, §3

Streptococcus agalactiae = experiment: Minimum inhibitory concentration, S. agalactiae; assay type: cell-based, Streptococcus agalactiae J48; settings: Mueller-Hinton Broth, 37° C., 72 h
Description: as §1, §2, §3

Escherichia coli = experiment: Minimum inhibitory concentration, E. coli; assay type: cell-based, Escherichia coli ATCC 25922; settings: Mueller-Hinton Broth, 37° C., 72 h
Description: as §1, §2, §3

Pseudomonas aeruginosa = experiment: Minimum inhibitory concentration, P. aeruginosa; assay type: cell-based, Pseudomonas aeruginosa ATCC 27853; settings: Mueller-Hinton Broth, 37° C., 72 h
Description: as §1, §2, §3

[1] = Isothermal titration calorimetry: critical aggregation concentration and thermodynamics of aggregation; assay type: physicochemical; settings: for −TΔSmic: Gibbs-Helmholtz equation; for −TΔSmic / ΔGmic: double-tailed series; for ΔGmic: approximated with RT ln(CAC/55.5); for CMC / ΔHmic: pure water, double-tailed M-P and M-1 series; for −TΔSagg term (sign, in words): Table 1
Description: Isothermal titration calorimetry (ITC) was used to determine the critical aggregation concentration (CAC) and the thermodynamic parameters at 37° C. associated with aggregate formation for each double-tailed amphiphile for the M-P and M-1 series, as shown in Table 1.
A Nano ITC was used to measure the heat change associated with the deaggregation of amphiphiles via power compensation. A concentrated aqueous solution of amphiphile (>>CAC) was titrated into a thermally controlled sample cell, initially containing pure water, in a series of discrete injections. Isothermal titration calorimetry was used to determine the critical aggregation concentration (CAC) and ΔHagg. Shown in FIG. 5 is the heat rate associated with each injection versus time for 9 (M-1,14,14). Shown in FIG. 6 is the integration of the heat per injection normalized by the number of moles of each injection versus the increasing concentration of amphiphile in the well. In FIG. 6, inset, CAC is determined by calculating the first derivative the heat curve.
During initial injections (Range I), measured heat changes are due to both the dilution of aggregates and deaggregation. This can be observed in the first 10 injections, where aggregates absorbed heat and disassociated into dissolved monomers. The heat change produced by each injection was approximately constant in this range. In Range II, injected aggregates don't fully dissociate, reducing the total absorbed heat for each subsequent injection. At concentrations well above the CAC (Range III), absorbed heat is attributed only to the dilution of aggregates and is approximately constant. […] CAC and thermodynamic data were not determined for the amphiphiles with the shortest tails [1 (M-P,8,8) and 6 (M-1,8,8)] because the heat evolved during injection was […] the threshold of the instrument.
The difference between the average heat of injections in Range I, representing the total heat due to the dilution of aggregates and deaggregation, and the average heat of injections in Range III, representing the heat due solely to the dilution of aggregates, gives the heat of deaggregation, ΔHdeagg. The ΔHdeagg for compound 9 (M-1,14,14) is 37 kJ/mol, corresponding to a heat of aggregate formation, ΔHagg, of −37 kJ/mol (ΔHagg=−ΔHdeagg).
The ΔGagg can be approximated for the aggregation of nonionic amphiphiles by the equation: ΔGagg=RT ln(CAC/55.5) (3)
where m is the concentration of counterions that associate with a aggregate and n is the number of monomers that associate to form an aggregate. […] BBA-Biomembranes. 2000, 1508, 69-85.)
The entropy of aggregation (ΔSagg) is dictated by a combination of entropic factors that favor or disfavor aggregate formation and can be approximated using the Gibbs-Helmholtz equation: ΔGagg=ΔHagg−TΔSagg (5)
CAC and ΔHagg were determined using a Nano-ITC (TA-Instruments). Prior to each experiment the sample cell was washed with dH2O (300 mL), ethanol (100 mL), dH2O (300 mL) and nanopure water (200 mL). Next, 950 μL of nanopure water was added to the sample cell. A concentrated aqueous solution (>>CAC) of amphiphile was prepared and equilibrated at 37° C. A 250 μL syringe was filled with the aqueous solution, and loaded into the Nano ITC. Multiple single injections in aliquots of 5 μL were injected into the sample cell with time intervals varying from 300 s to 1400 s. Samples were continuously stirred (300 rpm) throughout the titration. The Nano-Analyze program (TA-Instruments) was used to analyze the data. CAC and ΔHagg values reported are the average of two or more repeat experiments for each amphiphile.

| Compound | MIC S. aureus (G+) (Staphylococcus aureus) [µM] | MIC B. cereus (G+) (Bacillus cereus) [µM] | MIC E. faecalis (G+) (Enterococcus faecalis) [µM] | MIC S. agalactiae (G+) (Streptococcus agalactiae) [µM] | MIC E. coli (G−) (Escherichia coli) [µM] | MIC P. aeruginosa (G−) (Pseudomonas aeruginosa) [µM] | −TΔSmic ([1]; 37° C.) [kcal/mol] | ΔGmic ([1]; 37° C.) [kcal/mol] | CMC ([1]; ITC, 37° C.) [mM] | ΔHmic ([1]; ITC, 37° C.) [kcal/mol] | −TΔSagg term (sign, in words) [1] | ΔHagg ([1]; ITC, 37° C.) [kcal/mol] | ΔHdeagg (heat of deaggregation) ([1]; ITC, 37° C., Range I minus Range III) [kcal/mol] |
| --- | --- | --- | --- | --- | --- | --- | --- | --- | --- | --- | --- | --- | --- |
| CCCCCCCC[N+](C)(C)Cc1cc(C[n+]2ccccc2)cc(C[N+](C)(C)CCCCCCCC)c1.[Br-].[Br-].[Br-] [Compound 1] | >250 | >250 | >250 | >250 | >250 | >250 |  |  |  |  |  |  |  |
| CCCCCCCCCC[N+](C)(C)Cc1cc(C[n+]2ccccc2)cc(C[N+](C)(C)CCCCCCCCCC)c1.[Br-].[Br-].[Br-] [Compound 2] | 2 | 8 | 8 | 8 | 16 | 63 | 2.39 | -5.02 | 14 | -2.63 | negative |  |  |
| CCCCCCCCCCCC[N+](C)(C)Cc1cc(C[n+]2ccccc2)cc(C[N+](C)(C)CCCCCCCCCCCC)c1.[Br-].[Br-].[Br-] [Compound 3] | 2 | 2 | 2 | 1 | 4 | 8 | 0.741 | -6.21 | 2.4 | -5.5 | negative |  |  |
| CCCCCCCCCCCCCC[N+](C)(C)Cc1cc(C[n+]2ccccc2)cc(C[N+](C)(C)CCCCCCCCCCCCCC)c1.[Br-].[Br-].[Br-] [Compound 4] | 4 | 8 | 4 | 4 | 16 | 63 | -2.08 | -7.17 | 0.56 | -9.08 | positive |  |  |
| CCCCCCCCCCCCCCCC[N+](C)(C)Cc1cc(C[n+]2ccccc2)cc(C[N+](C)(C)CCCCCCCCCCCCCCCC)c1.[Br-].[Br-].[Br-] [Compound 5] | 32 | 32 | 32 | 4 | 125 | >250 | -2.2 | -7.89 | 0.18 | -10 | positive |  |  |
| CCCCCCCC[N+](C)(C)Cc1cc(C[N+](C)(C)C)cc(C[N+](C)(C)CCCCCCCC)c1.[Br-].[Br-].[Br-] [Compound 6] | >250 | >250 | >250 | >250 | >250 | >250 |  |  |  |  |  |  |  |
| CCCCCCCCCC[N+](C)(C)Cc1cc(C[N+](C)(C)C)cc(C[N+](C)(C)CCCCCCCCCC)c1.[Br-].[Br-].[Br-] [Compound 7] | 16 | 8 | 8 | 4 | 125 | >250 | 1.58 | -5.26 | 12 | -3.59 | negative |  |  |
| CCCCCCCCCCCC[N+](C)(C)Cc1cc(C[N+](C)(C)C)cc(C[N+](C)(C)CCCCCCCCCCCC)c1.[Br-].[Br-].[Br-] [Compound 8] | 2 | 2 | 2 | 2 | 4 to 8 | 16 | 0.0196 | -6.21 | 2.5 | -6.21 | negative |  |  |
| CCCCCCCCCCCCCC[N+](C)(C)Cc1cc(C[N+](C)(C)C)cc(C[N+](C)(C)CCCCCCCCCCCCCC)c1.[Br-].[Br-].[Br-] [Compound 9] | 4 to 8 | 4 | 4 | 2 to 4 | 8 | 125 | -1.91 | -6.93 | 0.61 | -8.84 | positive | -8.84 | 8.84 |
| CCCCCCCC[N+](C)(C)Cc1cc(C[N+](C)(C)C)cc(C[N+](C)(C)C)c1.[Br-].[Br-].[Br-] [Compound S1] | >250 | >250 | >250 | >250 | >250 | >250 |  |  |  |  |  |  |  |
| CCCCCCCCCC[N+](C)(C)Cc1cc(C[N+](C)(C)C)cc(C[N+](C)(C)C)c1.[Br-].[Br-].[Br-] [Compound S2] | >250 | 125 | 250 | 125 | >250 | >250 |  |  |  |  |  |  |  |
| CCCCCCCCCCCC[N+](C)(C)Cc1cc(C[N+](C)(C)C)cc(C[N+](C)(C)C)c1.[Br-].[Br-].[Br-] [Compound S3] | 63 | 63 | 250 | 125 | >250 | >250 |  |  |  |  |  |  |  |
